For one test, the system named is HL-60. The test is described as follows: Tested for inhibition against leukemic HL-60 (human cancer) cell lines. It is filed as functional, cell-based.
In the next test the test system is MDA-MB-468. The test is described as follows: Tested for inhibition against mammary cancer MDA-MB 468 (breast carcinoma) cell lines. It is filed as functional, cell-based. The conditions noted are these: Homo sapiens.

On to CISPLATIN, for which the ID50 in the test with HL-60 turned out to be 2300 nM; in the test on MDA-MB-468, 3300 nM.
